The source of these data is article PMC6155776, “Synthesis of Novel Pyrazinamide Derivatives Based on 3-Chloropyrazine-2-carboxamide and Their Antimicrobial Evaluation” (Molecules : A Journal of Synthetic Chemistry and Natural …, 2017).

Structures are written as SMILES. In brackets after ≈: the same amount, converted by molar mass. Several values for one entry are separate records, joined by “and”; a condition that tells them apart may be missing. Equal entries are not always repeated. Where two headings read alike, the source gives them in different places.

For orientation: IC50 means the midpoint of a concentration-inhibition curve.

Series [1] has as its system Enterococcus faecalis J 14365/08. As to the kind of experiment: Antibacterial screening, microdilution broth panel method. The class given is cell-based. The conditions noted are these: J14365/08; Enterococcus faecalis J 14365/08, pH 7.0; read-out: Minimum Inhibitory Concentrations Bacteria, EF. Background: Dilution methods test growth across graded concentrations, often in twofold steps.

Series [2] has as its system Mycobacterium tuberculosis H37Rv. As to the kind of experiment: Antimycobacterial screening, microdilution broth panel method with resazurin (Alamar blue). Particulars: for MIC: read-out: Minimum Inhibitory Concentrations M. tbc H37Rv. In kind it is cell-based.
The subject of series [3] is Mycobacterium smegmatis CCM 4622 (ATCC 607). As to the kind of experiment: Mycobacterium smegmatis screening, microdilution broth panel method with resazurin. The class given is cell-based. Particulars: Middlebrook 7H9 broth, 48 h incubation; for MIC: Mycolicibacterium smegmatis, 48 h, read-out: Minimum Inhibitory Concentrations M. smegmatis.
The nature of series [4]: Experimental lipophilicity logk by RP-HPLC. The conditions noted are these: methanol 70% / water 30%, C18.
Method: These values were compared with logk, an experimentally measured lipophilicity parameter derived from retention times acquired by RP-HPLC.
Experimental lipophilicity parameter logk values were determined using HPLC method. […] The separation process was handled by Agilent ChemStation, version B.04.02 extended with spectral module (Agilent Technologies Inc.). A mixture of methanol (HPLC grade, 70%) and water (HPLC-Milli-Q Grade, 30%) was used as mobile phase. The total flow rate of the column was set to 1.0 mL/min, injection 20 μL, column temperature 30 °C. 210 nm as detection wavelength and 270 nm as monitor wavelength were chosen. A methanolic solution of KI was used for the determination of dead time (TD). Retention times (TR) of synthesized compounds were measured in minutes. Capacity factors k were calculated according to formula k = (TR − TD)/TD, where TR is the retention time of the solute and TD denotes the dead time obtained via an unretained analyte (KI). Logk, which was calculated from the capacity factor k, is used as the lipophilicity index.
Series [5] deals with eight common bacterial strains. As to the kind of experiment: Antibacterial screening, microdilution broth panel method. In kind it is cell-based. Particulars: all tested bacterial strains, pH 7.0; read-out: Minimum Inhibitory Concentrations Bacteria.
The next series has as its system M. tbc H37Rv. The conditions noted are these: cited from earlier work.
The test system of the next series is M. kansasii My 235/80. As to the kind of experiment: Antimycobacterial screening, microdilution broth panel method with resazurin (Alamar blue). Particulars: Mycobacterium kansasii, MY235/80; pH 5.6, 5–7 days incubation. In kind it is cell-based.
The subject of series [6] is Staphylococcus aureus CCM 4516/08. In words: Antibacterial screening, microdilution broth panel method. In kind it is cell-based.
The nature of another series: in vitro. Particulars: human, IC50 (cytotoxicity), HepG2, 24 h incubation.
A further series concerns HepG2 cell line. Particulars: read-out: IC50 (cytotoxicity); HepG2, 24 h incubation.
Setting [7] is: Mycobacterium tuberculosis, H37RV, 336 h, pH 5.6, Sula's broth pH 5.6, 14 days incubation.
Where [8] appears, read: Mycobacterium tuberculosis, H37RV, 336 h, pH 5.6, Sula's broth pH 5.6, 14 days incubation, n.a. = not active.

For `COc1ccc(CNc2nccnc2C(N)=O)c(OC)c1` [Compound 14, 3-[(2,4-Dimethoxybenzyl)amino]pyrazine-2-carboxamide], the MIC was 62.5 µM (≈ 18 µg/mL) in series [1], more than 100 mg/L in series [2] (setting [7]) and not below 500 mg/L in [3]. The compound further showed a Logk in [4] of 0.274.
For the compound `NC(=O)c1cnccn1` [PZA, pyrazinamide], the MIC is 102 µM in [2] (setting [8]), 12.5 mg/L in [2] (setting [7]) and not below 500 mg/L in series [3].
On to `NC(=O)c1nccnc1NCc1ccccc1Cl` [Compound 10, 3-[(2-Chlorobenzyl)amino]pyrazine-2-carboxamide], for which the MIC in series [5] is more than 500 µM; in series [2] (setting [7]) it was more than 100 mg/L; in series [3], not below 500 mg/L. Moreover, the Logk in series [4] is recorded as 0.441.
With `NC(=O)c1nccnc1NCc1ccccc1C(F)(F)F` [Compound 13, 3-[(2-Trifluoromethylbenzyl)amino]pyrazine-2-carboxamide], the MIC in series [1] is 125 µM (≈ 37 µg/mL); in series [2] (setting [7]), more than 100 mg/L; in series [3] it was not below 500 mg/L. The Logk in series [4] is listed as 0.495.
In the case of `NC(=O)c1nccnc1NCc1ccccc1` [Compound 1, 3-(Benzylamino)pyrazine-2-carboxamide], the MIC in series [5] is more than 500 µM; in [2] (setting [7]), not below 100 mg/L; in series [3] it was not below 500 mg/L. Moreover, the Logk in series [4] stood at 0.215.
Regarding `NC(=O)c1nccnc1NCc1ccc(Cl)cc1` [Compound 5, 3-[(4-Chlorobenzyl)amino]pyrazine-2-carboxamide], the MIC in series [2] (setting [7]) was more than 100 mg/L; in [3] it was 250 mg/L (≈ 952 µM). The compound also registered a Logk in series [4] of 0.373.
For the compound `N#Cc1cnc(C(N)=O)c(NCc2cccc(C(F)(F)F)c2)n1` [Compound 4-A], the “MIC against M. tbc H37Rv” value in the series on M. tbc H37Rv (series A and B) is 25 µg/mL and 78 µM.
On to `NC(=O)c1nccnc1NCc1cccc(C(F)(F)F)c1` [Compound 4, 3-[(3-Trifluoromethylbenzyl)amino]pyrazine-2-carboxamide], for which the MIC with M. kansasii My 235/80 was 25 µg/mL and 84 µM; in series [6] (Staphylococcus aureus, CCM4516, pH 7, Staphylococcus aureus CCM 4516/08, pH 7.0, read-out: Minimum Inhibitory Concentrations Bacteria, SA) it was 31.2 µM (≈ 9.26 µg/mL); in [3], 250 mg/L (≈ 844 µM). Also, the “Minimum Inhibitory Concentrations Bacteria, SA” value in [6] (Staphylococcus aureus CCM 4516/08, pH 7.0) stood at 31.25 SA ^a µM. The Logk in series [4] turned out to be 0.403. Moreover, in the series “in vitro”, the IC50 came to 76.5 µM.
In the case of `Cc1nc(C#N)c(C#N)nc1NCc1ccc(N)cc1` [Compound 9-C], in the series on M. tbc H37Rv (series C), the “MIC against M. tbc H37Rv” value is 25 µg/mL and 95 µM.
In the case of `Cc1ccc(CNc2nccnc2C(N)=O)cc1` [Compound 8, 3-[(4-Methylbenzyl)amino]pyrazine-2-carboxamide], the values for the 50% inhibitory concentration (IC50) with HepG2 cell line and in the series “in vitro” were more than 250 µM and not below 250 µM, respectively. Besides, the MIC was more than 500 µM in series [5]; 6 to 42 µM in series [2] (setting [8]); 1.56 to 12.5 mg/L in series [2] (setting [7]); 6 µM in series [2] (Sula's broth pH 5.6, 14 days incubation, n.a. = not active); not below 500 mg/L in series [3]. In series [2] (Sula's broth pH 5.6, 14 days incubation), the “Minimum Inhibitory Concentrations M. tbc H37Rv” value was 1.56 µg/mL. In [4], this compound showed a Logk of 0.441.
For the compound `O=C(O)c1cn(C2CC2)c2cc(N3CCNCC3)c(F)cc2c1=O` [CPX, ciprofloxacin, reference compound], in series [3], the “Minimum Inhibitory Concentrations M. smegmatis” value lay within 0.10 to 0.20 µg/mL and the MIC amounted to 0.1 mg/L (≈ 0.302 µM).
As to `Cc1ccc(CNc2nc(C#N)cnc2C(N)=O)cc1` [Compound 8-A], the “MIC against M. tbc H37Rv” value with M. tbc H37Rv (series A and B) was 12.5 µg/mL and 47 µM.
On to `NNC(=O)c1ccncc1` [INH, isoniazid, reference compound], for which the MIC was 1.56 µg/mL to 12.5 µg/mL and 11 µM to 91 µM in the series on M. kansasii My 235/80; 3 µM in series [2] (setting [8]); 0.39 mg/L in [2] (setting [7]). Further, the results for the “Minimum Inhibitory Concentrations M. smegmatis” value in series [3] and in series [3] (listed as isoniazid) were 7.81 to 15.63 µg/mL and 15.63 µg/mL, respectively.
On to `Cc1ccccc1CNc1nccnc1C(N)=O` [Compound 6, 3-[(2-Methylbenzyl)amino]pyrazine-2-carboxamide], for which the figures for the MIC in series [5], in series [2] (setting [7]) and in series [3] were more than 500 µM, more than 100 mg/L and not below 500 mg/L, respectively. In addition, the Logk in series [4] is reported as 0.320.
As for `CO[C@H]1/C=C/O[C@@]2(C)Oc3c(C)c(O)c4c(O)c(c(/C=N/N5CCN(C)CC5)c(O)c4c3C2=O)NC(=O)/C(C)=C\C=C\[C@H](C)[C@H](O)[C@@H](C)[C@@H](O)[C@@H](C)[C@H](OC(C)=O)[C@@H]1C` [RFM, rifampicin, reference compound], in [3], the “Minimum Inhibitory Concentrations M. smegmatis” value was 0.78 to 1.56 µg/mL and the MIC worked out at 0.39 mg/L (≈ 0.474 µM).
On to `Cc1ccc(CNc2nc(C#N)c(C#N)nc2C)cc1` [Compound 8-C], for which the “MIC against M. tbc H37Rv” value in the series on M. tbc H37Rv (series C) was 25 µg/mL and 95 µM.
Turning to `Cc1ccc(CNc2nc(C#N)cnc2C#N)cc1` [Compound 8-B], the “MIC against M. tbc H37Rv” value in the series with M. tbc H37Rv (series A and B) was 6.25 µg/mL and 25 µM.
In the case of `Cc1nc(C#N)c(C#N)nc1NCc1ccccc1` [Compound 1-C], in the series with M. tbc H37Rv (series C), the “MIC against M. tbc H37Rv” value was 25 µg/mL and 100 µM.
In the case of `COc1ccc(CNc2nccnc2C(N)=O)cc1` [Compound 7, 3-[(4-Methoxybenzyl)amino]pyrazine-2-carboxamide], the MIC in series [5] was more than 500 µM; in series [2] (setting [7]), more than 100 mg/L; in series [3], not below 500 mg/L. The compound also returned a Logk in series [4] of 0.194.
Turning to `NC(=O)c1nccnc1NCc1cccc([N+](=O)[O-])c1` [Compound 15, 3-[(3-Nitrobenzyl)amino]pyrazine-2-carboxamide], the MIC in [5] is more than 500 µM; in series [2] (setting [7]), more than 100 mg/L; in series [3] it was not below 500 mg/L. Also, the Logk in [4] was 0.101.
With `NC(=O)c1nccnc1NCc1ccc(Cl)c(Cl)c1` [Compound 3, 3-[(3,4-Dichlorobenzyl)amino]pyrazine-2-carboxamide], the MIC in series [5] was more than 500 µM; in series [2] (setting [7]) it was more than 100 mg/L; in [3], not below 500 mg/L. In addition, in [4], the Logk was 0.470.
Regarding `N#Cc1cnc(C#N)c(NCc2ccccc2)n1` [Compound 1-B], the “MIC against M. tbc H37Rv” value in the series on M. tbc H37Rv (series A and B) is 12.5 µg/mL (≈ 53.1 µM).
In the case of `NC(=O)c1nccnc1NCc1cccc(Cl)c1` [Compound 2, 3-[(3-Chlorobenzyl)amino]pyrazine-2-carboxamide], the MIC is more than 500 µM in series [5], more than 100 mg/L in series [2] (setting [7]) and not below 500 mg/L in series [3]. In series [4], this compound displayed a Logk of 0.373.
As for `NC(=O)c1nccnc1NCc1ccc(N)cc1` [Compound 9, 3-[(4-Aminobenzyl)amino]pyrazine-2-carboxamide], the MIC in series [5] is more than 500 µM; in series [3] it was 250 mg/L (≈ 1030 µM). In addition, the Logk in [4] is given as −0.313. This compound had an IC50 in the series “in vitro” of more than 750 µM.
On to `N#Cc1cnc(C#N)c(NCc2ccc(N)cc2)n1` [Compound 9-B], for which the “MIC against M. tbc H37Rv” value in the series with M. tbc H37Rv (series A and B) is 25 µg/mL and 100 µM.
For `N#Cc1cnc(C(N)=O)c(NCc2ccc(N)cc2)n1` [Compound 9-A], the “MIC against M. tbc H37Rv” value with M. tbc H37Rv (series A and B) is 12.5 µg/mL and 47 µM.
For `NC(=O)c1nccnc1NCc1ccccc1F` [Compound 11, 3-[(2-Fluorobenzyl)amino]pyrazine-2-carboxamide], the figures for the MIC in [1], in [2] (setting [7]) and in series [3] were 125 µM (≈ 30.8 µg/mL), more than 100 mg/L and not below 500 mg/L, respectively. In addition, the Logk in series [4] is 0.248.
Take `Cc1nc(C#N)c(C#N)nc1NCc1cccc(C(F)(F)F)c1` [Compound 4-C]: in the series with M. tbc H37Rv (series C), the “MIC against M. tbc H37Rv” value was 12.5 µg/mL and 39 µM.
With `NC(=O)c1nccnc1NCc1ccc(C(F)(F)F)cc1` [Compound 12, 3-[(4-Trifluoromethylbenzyl)amino]pyrazine-2-carboxamide], the MIC in [1] is 125 µM (≈ 37 µg/mL); in series [3], not below 500 mg/L. The compound further had a Logk in series [4] of 0.502. The compound further came in with an IC50 in “in vitro” of 57.3 µM.
